Assay: solvent given as SMILES

c1cc2ccc3cccc4ccc(c1)c2c34
Conditions | solvation free energy, 298 K [kcal/mol]
in Brc1ccccc1 | -13.2
in C1CCOC1 | -13.4
in C1COCCO1 | -13
in CC(=O)N(C)C | -13.3
in CC(C)(C)O | -11.2
in CC(C)=O | -12.7
in CC(C)CC(C)(C)C | -11.3
in CC(C)CC(C)O | -11.4
in CC(C)CCO | -11.4
in CC(C)CO | -11.2
in CC(C)O | -11.5
in CC(C)OC(C)C | -12
in CC(O)COC(C)(C)C | -12.3
in CCC(C)(C)O | -11.5
in CCC(C)=O | -13
in CCC(C)O | -11.3
in CCCC(=O)OC | -12.7
in CCCC(C)CO | -11.5
in CCCC(C)O | -11.5
in CCCCC(CC)CO | -11.7
in CCCCCC | -11.5
in CCCCCCC | -11.6
in CCCCCCCC | -11.7
in CCCCCCCCC=CCCCCCCCC(=O)OCC(COC(=O)CCCCCCCC=CCCCCCCCC)OC(=O)CCCCCCCC=CCCCCCCCC | -12.3
in CCCCCCCCCC | -11.8
in CCCCCCCCO | -11.9
in CCCCCCCO | -11.8
in CCCCCCO | -11.8
in CCCCCO | -11.7
in CCCCCOC(C)=O | -12.7
in CCCCCl | -12.8
in CCCCO | -11.6
in CCCCOC(C)=O | -12.7
in CCCCOCCCC | -12.1
in CCCCOCCO | -12.4
in CCCO | -11.5
in CCCOCCO | -12.4
in CCO | -11.6
in CCOC(C)=O | -12.7
in CCOCC | -12.4
in CCOCCO | -12.5
in CN(C)C=O | -13.2
in CNC=O | -11.8
in CO | -11.2
in COC(C)(C)C | -12.2
in COC(C)=O | -12.6
in COC(C)CCO | -12.3
in COCCO | -12.2
in Cc1ccc(C)cc1 | -12.8
in Cc1cccc(C)c1 | -12.8
in Cc1ccccc1C | -12.9
in ClC(Cl)(Cl)Cl | -12.7
in ClC(Cl)Cl | -13.2
in ClCCCl | -13.2
in Fc1ccccc1 | -12.9
in N#Cc1ccccc1 | -13.1
in O | -4.77
in O=C1CCCCC1 | -13.2

CCCCC(=O)CC
Conditions | solvation free energy, 298 K [kcal/mol]
in CCCCCCC | -5.42
in CCCCO | -5.8
in CO | -5.85
in O | -3.04

Clc1cc(Cl)c(Cl)cc1Cl
Conditions | solvation free energy, 298 K [kcal/mol]
in CCCCCCCCO | -7.67
in O | -1.34

O=[N+]([O-])c1cccc2ccccc12
Conditions | solvation free energy, 298 K [kcal/mol]
in CC(C)(C)O | -9.71
in CC(C)CC(C)(C)C | -9.18
in CC(C)CCO | -9.67
in CC(C)CO | -9.55
in CC(C)O | -9.78
in CC(C)OC(C)C | -10.4
in CCC(C)O | -9.94
in CCCC(C)O | -9.83
in CCCCC(CC)CO | -9.76
in CCCCCC | -9.35
in CCCCCCC | -9.37
in CCCCCCCC | -9.38
in CCCCCCCCCC | -9.39
in CCCCCCCCCCO | -9.94
in CCCCCCCCO | -9.98
in CCCCCCCO | -9.98
in CCCCCCO | -10
in CCCCCO | -9.99
in CCCCO | -9.97
in CCCCOCCCC | -10.2
in CCCO | -9.99
in CCO | -10.1
in CCOCC | -11
in COC(C)(C)C | -10.9
in O | -5.65

CN1CCCC1c1cccnc1 (stereo not given)
Conditions | solvation free energy, 298 K [kcal/mol]
in O | -7.98
